Source: ChEMBL document CHEMBL2375333, “Triterpenes from the aerial parts of Cimicifuga yunnanensis and their antiproliferative effects on p53(N236S) mouse embryonic fibroblasts” (J Nat Prod, 2013)

Columns and labels:
MEF [1] = assay: Cytotoxicity against mouse wild type MEF cells after 48 hrs by MTT assay; type: cell-based
MEF [2] = assay: Cytotoxicity against mouse MEF cells harboring H-RasV12 and p53 N236S mutant after 48 hrs by MTT assay; type: functional, cell-based
MEF [3] = assay: Cytotoxicity against p53-/- mouse MEF cells harboring H-RasV12 after 48 hrs by MTT assay; type: functional, cell-based

Row | Structure (SMILES) | IC50 (MEF [1]) [µM] | IC50 (MEF [2]) [µM] | IC50 (MEF [3]) [µM]
1 | C[C@@H]1C[C@]2(OC[C@](C)(O)[C@H]2O)O[C@H]2C[C@@]3(C)C4=C(C[C@@H](O)[C@]3(C)[C@@H]12)[C@@]1(C)CC[C@H](O)C(C)(C)[C@@H]1CC4 | 14.5 | 5.5 | –
2 | C[C@@H]1C[C@]2(OC[C@](C)(O)[C@H]2O)O[C@H]2C[C@@]3(C)C4=CC[C@H]5C(C)(C)[C@@H](O)CC[C@]5(C)C4=CC[C@]3(C)[C@@H]12 | 6 | 8.6 | –
3 | CC(=O)O[C@@H]1C[C@@]23C[C@@]24CC[C@H](O)C(C)(C)[C@@H]4CC[C@H]3[C@]2(C)C[C@@H]3OC(=O)C[C@@H](C)[C@@H]3[C@@]12C | – | – | 7.5
4 | C[C@@H]1C[C@H]2O[C@@]3(O[C@@H]2C(C)(C)O)[C@H]1[C@@]1(C)[C@H](O)C[C@@]24C[C@@]25CC[C@H](O)C(C)(C)[C@@H]5CC=C4[C@]1(C)[C@H]3O | – | – | 9.8
5 | C=C(C)[C@@H]1O[C@]23O[C@@H]1C[C@@H](C)[C@@H]2[C@@]1(C)CC[C@@]24C[C@@]25CC[C@H](O)C(C)(C)[C@@H]5CC[C@H]4[C@]1(C)[C@H]3O | – | – | 6.2
6 | C[C@@H]1C[C@H]2O[C@]3(O[C@@H]2C(C)(C)O)[C@H]1[C@@]1(C)CCC2=C(CC[C@H]4C(C)(C)[C@@H]5CC[C@@]4(C2)O5)[C@]1(C)[C@H]3O [ACERINOL] | – | – | 10.2
7 | C[C@@H]1C[C@@]2(O[C@H]3C[C@@]4(C)[C@@H]5CC[C@H]6C(C)(C)[C@@H](O)CC[C@@]67C[C@@]57C[C@@H](O)[C@]4(C)[C@@H]13)O[C@H](O)[C@]1(C)O[C@H]21 [ACTEOL] | – | – | 7.4
